US9073895B2 (Boehringer Ingelheim International GmbH, priority 2010, dated 2015)
pIC50: −log10 of the molar value.

Tests used:
[1] = test system: synthesis of LTB4 in human whole blood; experiment: Human whole blood LTB4 production inhibition assay; type: cell-based; conditions: heparinized human whole blood, calcimycin 20 μM, plasma LTB4; read-out: HuWB IC50
In short: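 Whole-blood cellular format, heparinized human donors: 15 min compound pretreatment, then 30 min calcimycin stimulation (20 μM final), both at 37° C. Low-speed centrifugation yields plasma, in which LTB4 is read by homogeneous time-resolved fluorescence immunoassay.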

[2] = biological target: T1, recombinant human FLAP protein (Homo sapiens, UniProt P20292); experiment: FLAP binding assay (SPA, displacement of [125I]L-691,831); conditions: membranes of sf9 cells expressing human FLAP, [125I]L-691,831 probe; read-out: hFLAP binding IC50
T1 construct: made in house; host or cells: Sf9 insect cells (membrane fraction, 100,000 x g pellet)
T1 sequence (P20292 1-161): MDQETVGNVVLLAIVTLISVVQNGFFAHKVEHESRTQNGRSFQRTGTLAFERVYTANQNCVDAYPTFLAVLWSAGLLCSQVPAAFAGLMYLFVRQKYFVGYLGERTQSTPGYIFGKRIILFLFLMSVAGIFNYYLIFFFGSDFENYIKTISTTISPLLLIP
In short: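 Membranes from sf9 cells expressing human FLAP (5 μg/well) were bound to WGA SPA beads (200 μg/well). Nonspecific binding was defined with 10 μM unlabelled L-691,831.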

| pIC50 [1] | pIC50 [2] | Structure (SMILES) |
| --- | --- | --- |
| 6.89 | 8.78 | O=C(Nc1ccncn1)C1(c2ccc(-c3cnc4[nH]ccc4c3)cc2)CCC1 [Example 188, N-(pyrimidin-4-yl)-1-[4-(1H-pyrrolo[2,3-b]pyridin-5-yl)phenyl]cyclobutanecarboxamide] |
| 6.72 | 8.84 | Cc1cc(NC(=O)C2(c3ccc(-c4cnc5[nH]ccc5c4)cc3)CCC2)ccn1 [Example 189, N-(2-methylpyridin-4-yl)-1-[4-(1H-pyrrolo[2,3-b]pyridin-5-yl)phenyl]cyclobutanecarboxamide] |
| 6.83 | 8.65 | COc1cc(NC(=O)C2(c3ccc(-c4cnc5[nH]ccc5c4)cc3)CCC2)ccn1 [Example 190, N-(2-methoxypyridin-4-yl)-1-[4-(1H-pyrrolo[2,3-b]pyridin-5-yl)phenyl]cyclobutanecarboxamide] |
| 5.71 | 7.56 | Cc1nc(-c2ccc(NC(=O)C3(c4ccc(-c5ccc(N)nc5)cc4)CCOCC3)nc2)cs1 [Example 191, 4-[4-(6-aminopyridin-3-yl)phenyl]-N-[5-(2-methyl-1,3-thiazol-4-yl)pyridin-2-yl]tetrahydro-2H-pyran-4-carboxamide] |
| 6.06 | 7.49 | CNc1ncc(-c2ccc(C3(C(=O)Nc4cccnc4)CCC3)cc2)cn1 [Example 192, 1-{4-[2-(methylamino)pyrimidin-5-yl]phenyl}-N-(pyridin-3-yl)cyclobutanecarboxamide] |
| 5.78 | 8.00 | CNc1ncc(-c2ccc(C3(C(=O)Nc4ccc(-c5csc(C)n5)cn4)CCOCC3)cc2)cn1 [Example 193, 4-{4-[2-(methylamino)pyrimidin-5-yl]phenyl}-N-[5-(2-methyl-1,3-thiazol-4-yl)pyridin-2-yl]tetrahydro-2H-pyran-4-carboxamide] |
| 6.24 | 7.72 | Nc1ncc(-c2ccc(C3(C(=O)Nc4ccc(Oc5ccccc5)cn4)CCC3)cc2)cn1 [Example 194, 1-[4-(2-aminopyrimidin-5-yl)phenyl]-N-(5-phenoxypyridin-2-yl)cyclobutanecarboxamide] |
| 6.76 | 8.57 | N#Cc1ccc(NC(=O)C2(c3ccc(-c4cnc(N)nc4)cc3)CCC2)cc1Cl [Example 195, 1-[4-(2-aminopyrimidin-5-yl)phenyl]-N-(3-chloro-4-cyanophenyl)cyclobutane-carboxamide] |
| 5.54 | 7.30 | Cc1cnccc1NC(=O)C1(c2ccc(-c3cnc(N)nc3)cc2)CCC1 [Example 196, 1-[4-(2-aminopyrimidin-5-yl)phenyl]-N-(3-methylpyridin-4-yl)cyclobutanecarboxamide] |
| 5.61 | 7.57 | Cc1nc(-c2ccc(NC(=O)C3(c4ccc(-c5cnc6[nH]cnc6c5)cc4)CCOCC3)nc2)cs1 [Example 197, 4-[4-(3H-imidazo[4,5-b]pyridin-6-yl)phenyl]-N-[5-(2-methyl-1,3-thiazol-4-yl)pyridin-2-yl]tetrahydro-2H-pyran-4-carboxamide] |
| 6.74 | 8.43 | O=C(Nc1ccc(Oc2ccccc2)cn1)C1(c2ccc(-c3cnc4[nH]ccc4c3)cc2)CCC1 [Example 198, N-(5-phenoxypyridin-2-yl)-1-[4-(1H-pyrrolo[2,3-b]pyridin-5-yl)phenyl]cyclobutane-carboxamide] |
| 5.86 | 8.24 | COc1cc(NC(=O)C2(c3ccc(-c4cnc(N)nc4)cc3)CCC2)ncn1 [Example 199, 1-[4-(2-aminopyrimidin-5-yl)phenyl]-N-(6-methoxypyrimidin-4-yl)cyclobutanecarboxamide] |
| 5.70 | 7.72 | Nc1ncc(-c2ccc(C3(C(=O)Nc4nccs4)CCC3)cc2)cn1 [Example 200, 1-[4-(2-aminopyrimidin-5-yl)phenyl]-N-(1,3-thiazol-2-yl)cyclobutanaecarboxamide] |
| 6.65 | 8.43 | Nc1ncc(-c2ccc(C3(C(=O)Nc4ccc(-c5ccccc5)cn4)CCC3)cc2)cn1 [Example 201, 1-[4-(2-aminopyrimidin-5-yl)phenyl]-N-(5-phenylpyridin-2-yl)cyclobutanecarboxamide] |
| 5.49 | 7.86 | Nc1ncc(-c2ccc(C3(C(=O)Nc4ccccc4)CCC3)cc2)cn1 [Example 203, 1-[4-(2-aminopyrimidin-5-yl)phenyl]-N-phenylcyclobutanecarboxamide] |
| 6.38 | 8.55 | Nc1ncc(-c2ccc(C3(C(=O)Nc4ccc5ncsc5c4)CCC3)cc2)cn1 [Example 204, 1-[4-(2-aminopyrimidin-5-yl)phenyl]-N-(1,3-benzothiazol-6-yl)cyclobutanecarboxamide] |
| 6.04 | 8.08 | Cc1csc(NC(=O)C2(c3ccc(-c4cnc(N)nc4)cc3)CCC2)n1 [Example 205, 1-[4-(2-aminopyrimidin-5-yl)phenyl]-N-(4-methyl-1,3-thiazol-2-yl)cyclobutanecarboxamide] |

| pIC50 [1] | pIC50 [2] | Structure (SMILES) |
| --- | --- | --- |
| 6.34 | 8.47 | COc1ccc(-c2ccc(NC(=O)C3(c4ccc(-c5cnc(N)nc5)cc4)CCC3)nc2)cn1 [Example 208, 1-[4-(2-aminopyrimidin-5-yl)phenyl]-N-(6'-methoxy-3,3'-bipyridin-6-yl)cyclobutanecarboxamide] |
| 6.10 | 8.29 | Cc1ccc(NC(=O)C2(c3ccc(-c4cnc(N)nc4)cc3)CCC2)nc1 [Example 210, 1-[4-(2-aminopyrimidin-5-yl)phenyl]-N-(5-methylpyridin-2-yl)cyclobutanecarboxamide] |
| 6.48 | 7.90 | COc1ccc(NC(=O)C2(c3ccc(-c4cnc(N)nc4)cc3)CCC2)cn1 [Example 213, 1-[4-(2-aminopyrimidin-5-yl)phenyl]-N-(6-methoxypyridin-3-yl)cyclobutanecarboxamide] |
| 5.97 | 7.62 | Nc1ncc(-c2ccc(C3(C(=O)Nc4cnccn4)CCC3)cc2)cn1 [Example 214, 1-[4-(2-aminopyrimidin-5-yl)phenyl]-N-(pyrazin-2-yl)cyclobutanecarboxamide] |
| 6.15 | 7.75 | Nc1ncc(-c2ccc(C3(C(=O)Nc4ccnnc4)CCC3)cc2)cn1 [Example 215, 1-[4-(2-aminopyrimidin-5-yl)phenyl]-N-(pyridazin-4-yl)cyclobutanecarboxamide] |
| 5.52 | 7.04 | Cn1ccc(NC(=O)C2(c3ccc(-c4cnc(N)nc4)cc3)CCC2)cc1=O [Example 216, 1-[4-(2-aminopyrimidin-5-yl)phenyl]-N-(1-methyl-2-oxo-1,2-dihydropyridin-4-yl)cyclobutanecarboxamide] |
| 6.41 | 8.08 | COc1ccc(NC(=O)C2(c3ccc(-c4cnc(N)nc4)cc3)CCC2)nc1 [Example 217, 1-[4-(2-aminopyrimidin-5-yl)phenyl]-N-(5-methoxypyridin-2-yl)cyclobutanecarboxamide] |
| 6.02 | 7.49 | Cn1nccc1-c1ccc(NC(=O)C2(c3ccc(-c4cnc(N)nc4)cc3)CCOCC2)nc1 [Example 218, 4-[4-(2-aminopyrimidin-5-yl)phenyl]-N-[5-(1-methyl-1H-pyrazol-5-yl)pyridin-2-yl]tetrahydro-2H-pyran-4-carboxamide] |
| < 5.52 | 6.54 | Nc1ncc(-c2ccc(C3(C(=O)Nc4ccc(O)nc4)CCC3)cc2)cn1 [Example 221, 1-[4-(2-aminopyrimidin-5-yl)phenyl]-N-(6-hydroxypyridin-3-yl)cyclobutanecarboxamide] |
| 5.91 | 7.36 | Cn1ccc(NC(=O)C2(c3ccc(-c4cnc(N)nc4)cc3)CCC2)n1 [Example 222, 1-[4-(2-aminopyrimidin-5-yl)phenyl]-N-(1-methyl-1H-pyrazol-3-yl)cyclobutanecarboxamide] |
| 5.78 | 8.15 | Cc1nc(-c2ccc(NC(=O)C3(c4ccc(-c5cnc(N)nc5)cc4)CCCC3)nc2)cs1 [Example 223] |
| 6.14 | 7.52 | Cc1nccn1-c1ccc(NC(=O)C2(c3ccc(-c4cnc(N)nc4)cc3)CCOCC2)cc1 [Example 224, 4-[4-(2-aminopyrimidin-5-yl)phenyl]-N-[4-(2-methyl-1H-imidazol-1-yl)phenyl]tetrahydro-2H-pyran-4-carboxamide] |
| 5.86 | 7.11 | Nc1ncc(-c2ccc(C3(C(=O)Nc4cccnn4)CCC3)cc2)cn1 [Example 225, 1-[4-(2-aminopyrimidin-5-yl)phenyl]-N-(pyridazin-3-yl)cyclobutanecarboxamide] |
| < 5.52 | 7.39 | CC(C)C(C)(C(=O)Nc1ccncc1)c1ccc(-c2ccc(N(C)C)nc2)cc1 (centres unmarked) [Example 227, 2-{4-[6-(dimethylamino)pyridin-3-yl]phenyl}-2,3-dimethyl-N-(pyridin-4-yl)butanamide] |
| 5.96 | 7.92 | CCC(C)(C(=O)Nc1ccc(-c2csc(C)n2)cn1)c1ccc(-c2cnc(N)nc2)cc1 (centres unmarked) [Example 228, 2-[4-(2-aminopyrimidin-5-yl)phenyl]-2-methyl-N-[5-(2-methyl-1,3-thiazol-4-yl)pyridin-2-yl]butanamide] |
| 6.82 | 8.18 | Cc1nccn1-c1ccc(NC(=O)C2(c3ccc(-c4cnc(N)nc4)cc3)CCC2)cc1 [Example 229, 1-[4-(2-aminopyrimidin-5-yl)phenyl]-N-[4-(2-methyl-1H-imidazol-1-yl)phenyl]cyclobutanecarboxamide] |
| 6.16 | 7.67 | Nc1ncc(-c2ccc(C3(C(=O)Nc4ccncc4)CCCC3)cc2)cn1 [Example 230, 1-[4-(2-aminopyrimidin-5-yl)phenyl]-N-(pyridin-4-yl)cyclopentanecarboxamide] |
